Tested on: participants with SSc-RP
Experiment: SHAQ - Standard Disability Index
Type: in vivo, human
Parameters: key to SHAQ Standard Disability Index, In-Clinic Visit (Day 12), Mean / SHAQ Standard Disability Index, In-Clinic Visit (Day 12), Median / SHAQ Standard Disability Index, Day 12, Mean / SHAQ Standard Disability Index, Day 12, Median: 0 = without any difficulty to 3 = unable to do
Conditions: for % change in Standard Disability Index: SHAQ, mITT Part A
From the text: The standard, validated, patient reported outcome measures tool for SSc patients, the Scleroderma Health Assessment Questionnaire (SHAQ), will be used to assess the participant qualify of life. Details are attached in the Appendix. The participant quality of life will be scored, and a disability index calculated for each questionnaire completed by the patient at Screening and each in-clinic visit. The absolute change in participant quality of life from baseline to the end of each dosing period will be calculated similar to frequency data as before.
The SHAQ is used to calculate a Disability Index to assess the participant qualify of life. The eight categories assessed by the Disability Index are 1) dressing and grooming, 2) arising, 3) eating, 4) walking, 5) hygiene, 6) reach, 7) grip, and 8) common daily activities. For each of these categories, patients report the amount of difficulty they have in performing two or three specific activities.
There are four possible responses for the Disability Index questions: • Without any difficulty=0 • With some difficulty=1 • With much difficulty=2 • Unable to do=3 • The highest score reported by the patient for any component question of the eight categories determines the score for that category. • If a component question is left blank or the response is too ambiguous to assign a score, then the score for that category is determined by the remaining completed question(s). • If all component questions are blank or if more than one answer is given, then follow up with the respondent is required. • If the respondent's mark is between the response columns, then move it to the closest one. If it's directly between the two, move it to the higher one.
This question results in a new set of category scores that are computed by adjusting the score for each category, if necessary, based on the patient's use of an aid or device or assistance for that category. If either devices and/or help from another person are checked for a category, the score is set to “2”, unless the score is already “3” (i.e., scores of “0” or “1” are increased to “2”). For example, if the highest score for the dressing category is “1”, and the patient says they use a device for dressing, the computed category score would be “2”. The sum of the computed categories scores is then calculated and divided by the number of categories answered. This gives a score in the 0 to 3 range.

[1] = Any Cilnidipine (N = 17), Day 12, PP Population, Part A
[2] = Cilnidipine 10 mg, SSc patients, PP, Part A
[3] = Cilnidipine 20 mg (N = 3), Day 12, Patients with Diagnosis of SSc, Modified ITT Population - Part A
[4] = Cilnidipine 20 mg, SSc patients, PP, Part A
[5] = Pooled Cilnidipine 20 mg and Cilnidipine 20 mg + Tadalafil 5 mg (N = 8), Day 12, PP Population, Part A
[6] = Pooled Cilnidipine (N = 8), Day 12, PP Population, Part A
[7] = pooled Cilnidipine 10 mg and Cilnidipine 10 mg + Tadalafil 5 mg
[8] = pooled Cilnidipine 20 mg and Cilnidipine 20 mg + Tadalafil 5 mg
[9] = pooled cilnidipine 10 mg and 20 mg arms (combination: + tadalafil 5 mg)
[10] = Tadalafil 5 mg, Day 12, PP Population Part A, sensitivity analysis
[11] = Tadalafil 5 mg, SSc patients, PP, Part A

## COCCOC(=O)C1=C(C)NC(C)=C(C(=O)OC/C=C/c2ccccc2)C1c1cccc([N+](=O)[O-])c1 (stereo not shown) [Cilnidipine]
[1]
  SHAQ Standard Disability Index, Change from Baseline, Mean (SD): −0.041 (0.1990)
  SHAQ Standard Disability Index, Change from Baseline, Median: 0.000
  SHAQ Standard Disability Index, Percent Change from Baseline, Median: 0.00%
Cilnidipine 10 mg (N = 3), Patients with Diagnosis of SSc, Modified ITT Population - Part A
  SHAQ Standard Disability Index, In-Clinic Visit (Day 12), Median: 1.125
[2]
  SHAQ Standard Disability Index, Change from Baseline, Max: 0.00
  SHAQ Standard Disability Index, Change from Baseline, Min: 0.00,
  SHAQ Standard Disability Index, Change from Baseline, Q1: 0.000,
  SHAQ Standard Disability Index, Change from Baseline, Q3: 0.000
  SHAQ Standard Disability Index, Day 12, Max: 1.50
  SHAQ Standard Disability Index, Day 12, Mean: 0.656
  SHAQ Standard Disability Index, Day 12, Median: 0.563
  SHAQ Standard Disability Index, Day 12, Min: 0.00,
  SHAQ Standard Disability Index, Day 12, Q1: 0.000,
  SHAQ Standard Disability Index, Day 12, Q3: 1.313
  SHAQ Standard Disability Index, Percent Change from Baseline, Max: 0.0
  SHAQ Standard Disability Index, Percent Change from Baseline, Min: 0.0,
  SHAQ Standard Disability Index, Percent Change from Baseline, Q1: 0.00,
  SHAQ Standard Disability Index, Percent Change from Baseline, Q3: 0.00
[3]
  SHAQ Standard Disability Index, Change from Baseline, Mean: −0.125
  SHAQ Standard Disability Index, Change from Baseline, Median: −0.125
  SHAQ Standard Disability Index, Percent Change from Baseline, Mean: −50.00%
  SHAQ Standard Disability Index, Percent Change from Baseline, Median: −50.00%
Cilnidipine 20 mg (N = 3), Patients with Diagnosis of SSc, Modified ITT Population - Part A
  SHAQ Standard Disability Index, In-Clinic Visit (Day 12), Mean: 0.125
Cilnidipine 20 mg (n = 3)
  % change in Standard Disability Index: −50%
[4]
  SHAQ Standard Disability Index, Change from Baseline, Max: 0.13
  SHAQ Standard Disability Index, Change from Baseline, Mean: −0.063
  SHAQ Standard Disability Index, Change from Baseline, Median: −0.063
  SHAQ Standard Disability Index, Change from Baseline, Min: −0.25,
  SHAQ Standard Disability Index, Change from Baseline, Q1: −0.188,
  SHAQ Standard Disability Index, Change from Baseline, Q3: 0.063
  SHAQ Standard Disability Index, Day 12, Max: 0.75
  SHAQ Standard Disability Index, Day 12, Mean: 0.281
  SHAQ Standard Disability Index, Day 12, Median: 0.188
  SHAQ Standard Disability Index, Day 12, Min: 0.00,
  SHAQ Standard Disability Index, Day 12, Q1: 0.063,
  SHAQ Standard Disability Index, Day 12, Q3: 0.500
  SHAQ Standard Disability Index, Percent Change from Baseline, Max: 20.0
  SHAQ Standard Disability Index, Percent Change from Baseline, Mean: −26.67
  SHAQ Standard Disability Index, Percent Change from Baseline, Min: −66.7,
  SHAQ Standard Disability Index, Percent Change from Baseline, Q1: −66.67,
  SHAQ Standard Disability Index, Percent Change from Baseline, Q3: 20.00
[5]
  SHAQ Standard Disability Index, Change from Baseline, Mean: −0.065
  SHAQ Standard Disability Index, Change from Baseline, Median: 0.000
[6]
  SHAQ Standard Disability Index, Change from Baseline, Mean (SD): −0.031 (0.1108)
  SHAQ Standard Disability Index, In-Clinic Visit (Day 12), Mean (SD): 0.469 (0.5853)
  SHAQ Standard Disability Index, Percent Change from Baseline, Mean (SD): −16.00 (34.189) %
Pooled Cilnidipine (n = 7)
  % change in Standard Disability Index: −25%
Pooled cilnidipine (n=4)
  % Δ from baseline, standard disability mean: −25%
[7]
  Standard Disability Index Change from Baseline Max: 0.38
  Standard Disability Index Change from Baseline Mean: −0.021
  Standard Disability Index Change from Baseline Median: 0.000
  Standard Disability Index Change from Baseline Min: −0.31,
  Standard Disability Index Change from Baseline Q3: 0.000
  Standard Disability Index Day 12 Max: 1.50
  Standard Disability Index Day 12 Min: 0.00,
  Standard Disability Index Day 12 Q1: 0.188,
  Standard Disability Index Day 12 Q3: 1.125
  Standard Disability Index Percent Change from Baseline Max: 150.0%
  Standard Disability Index Percent Change from Baseline Mean: 7.50%
  Standard Disability Index Percent Change from Baseline Median: 0.00%
  Standard Disability Index Percent Change from Baseline Min: −62.5, %
  Standard Disability Index Percent Change from Baseline Q1: −25.00, %
  Standard Disability Index Percent Change from Baseline Q3: 0.00%
[8]
  Standard Disability Index Change from Baseline Max: 0.13
  Standard Disability Index Change from Baseline Mean: −0.092
  Standard Disability Index Change from Baseline Median: 0.000
  Standard Disability Index Change from Baseline Min: −0.52,
  Standard Disability Index Change from Baseline Q1: −0.250,
  Standard Disability Index Day 12 Max: 1.75
  Standard Disability Index Day 12 Median: 0.250
  Standard Disability Index Day 12 Min: 0.00,
  Standard Disability Index Day 12 Q1: 0.000,
  Standard Disability Index Day 12 Q3: 0.857
  Standard Disability Index Percent Change from Baseline Max: 100.0%
  Standard Disability Index Percent Change from Baseline Median: −33.33%
  Standard Disability Index Percent Change from Baseline Min: −66.7, %
  Standard Disability Index Percent Change from Baseline Q1: −37.66, %
  Standard Disability Index Percent Change from Baseline Q3: 7.69%
[9]
  Standard Disability Index Change from Baseline Max: 0.00
  Standard Disability Index Change from Baseline Mean: −0.054
  Standard Disability Index Change from Baseline Median: 0.000
  Standard Disability Index Change from Baseline Min: −0.25,
  Standard Disability Index Change from Baseline Q3: 0.000
  Standard Disability Index Day 12 Max: 1.50
  Standard Disability Index Day 12 Median: 0.125
  Standard Disability Index Day 12 Min: 0.00,
  Standard Disability Index Day 12 Q1: 0.000,
  Standard Disability Index Percent Change from Baseline Max: 0.0%
  Standard Disability Index Percent Change from Baseline Mean: −25.00%
  Standard Disability Index Percent Change from Baseline Min: −66.7, %
  Standard Disability Index Percent Change from Baseline Q1: −50.00, %
  Standard Disability Index Percent Change from Baseline Q3: 0.00%

## CN1CC(=O)N2[C@H](c3ccc4c(c3)OCO4)c3[nH]c4ccccc4c3C[C@@H]2C1=O [Tadalafil]
[10]
  SHAQ Standard Disability Index, In-Clinic Visit (Day 12), Mean: 0.531
  SHAQ Standard Disability Index, In-Clinic Visit (Day 12), Median: 0.563
[11]
  SHAQ Standard Disability Index, Change from Baseline, Max: 0.00
  SHAQ Standard Disability Index, Change from Baseline, Min: −0.13,
  SHAQ Standard Disability Index, Change from Baseline, Q1: −0.125,
  SHAQ Standard Disability Index, Change from Baseline, Q3: 0.000
  SHAQ Standard Disability Index, Day 12, Max: 1.00
  SHAQ Standard Disability Index, Day 12, Min: 0.00,
  SHAQ Standard Disability Index, Day 12, Q1: 0.250,
  SHAQ Standard Disability Index, Day 12, Q3: 0.813
  SHAQ Standard Disability Index, Percent Change from Baseline, Max: 0.0
  SHAQ Standard Disability Index, Percent Change from Baseline, Min: −16.7,
  SHAQ Standard Disability Index, Percent Change from Baseline, Q1: −16.67,
  SHAQ Standard Disability Index, Percent Change from Baseline, Q3: 0.00

Source: patent US20240358692A1, “TREATMENT OF SCLERODERMA” (Aisa Pharma, Inc., priority 2023, published 2024)
